Patent US20240216347A1, “BEZUCLASTINIB FORMULATIONS” (Cogent Biosciences, Inc., priority 2022, published 2024)
Values after ≈ are worked out from the molar mass of the structure shown.

Legend:
[1] = system: cells with activating c-kit mutations in the catalytic region; settings: Ma et al., 2002; cited from earlier work
[2] = clinical; settings: human, in vivo, po
[3] = Solubility in biorelevant media; assay type: physicochemical; settings: fassgf or other biorelevant, thermodynamic from solid; all biorelevant media (0.01N HCl, FaSSIF, SIF, FaSSGF), 37° C.; read-out: free drug concentration (solubility)
Method: Biorelevant media included 0.01N hydrochloric acid, Fast State Simulated Intestinal Fluid (FaSSIF) with and without bile salts, Simulated Intestinal Fluid (SIF) with various concentrations of bile salts (0, 0.5% and 1%) and Fasted State Simulated Gastric Fluid (FaSSGF). A saturated suspension was prepared in each media and the samples were stirred overnight using a magnetic stirrer. The free drug concentration was determined by subjecting the samples to 7 minutes in an ultracentrifuge at 470,000× gravity. A 100 μL aliquot was withdrawn and diluted in 5× in DMSO and Methanol and tested by the HPLC method described in Table 2. Six (6) replicates were performed in each media. In all cases, bezuclastinib was practically insoluble (free drug concentration ≤1.2 μg/mL).

[4] = Non-sink dissolution test in simulated intestinal fluid, no gastric transfer; assay type: physicochemical; settings: SIF 0.5% bile salt, pH 6.5, 37° C., 1 mg API per mL
Method: Non-sink dissolution testing was used to determine the kinetic solubility as well as the extent and duration of supersaturation of amorphous dispersions. Spray dried samples were examined under non sink dissolution testing conditions in FIGS. 2-5. Non sink testing was performed with and without a gastric transfer at various bile salt concentrations in biorelevant media including simulated intestinal fluid at pH 6.5 and FaSSIF at pH 6.5. Total drug and free drug concentration were determined as described in Example 2.
Samples were loaded at a concentration of 1 mg API per mL of media. The SDD's tested were 10% and 20% drug loading HPMCAS-L SDD, 20% HPMCAS-H and 20% HPMCAS-L with 5 mg/mL HPMCAS-H added.

[5] = Influence of pH on solubility; assay type: physicochemical; settings: Simulated Intestinal Fluid with 0.5% bile salts, fassgf or other biorelevant, thermodynamic from solid; SIF with 0.5% bile salts, 37° C., pH 4.0, 5.5 and 6.0; read-out: free drug concentration (solubility)
Method: A saturated bezuclastinib suspension was prepared in each media and the samples were stirred overnight using a magnetic stirrer. The total drug concentration was determined by subjecting the samples to 3 minutes in a microcentrifuge at 19,500× gravity. The free drug concentration was determined by subjecting the samples to 7 minutes in an ultracentrifuge at 470,000× gravity. A 100 μL aliquot was withdrawn and diluted in 5× in DMSO and Methanol and tested by the HPLC method. Six (6) replicates were performed in each media. In all conditions, bezuclastinib was poorly soluble (free drug concentration <20 μg/mL).

[6] = Aqueous solubility of Bezuclastinib; assay type: physicochemical; settings: aqueous buffer
Method: Compound (I) was first disclosed in U.S. Pat. No. 9,676,748 B2 and U.S. Pat. No. 10,301,280 B2. In the almost 10 years since, Compound (I) has proven to be difficult to prepare in a tablet form suitable for commercial development. In particular, Compound (I) has a very high melting point (>365° C.) and is practically insoluble in aqueous conditions (0.32 ug/mL at pH 7.0), and most organic solvents. In addition, no suitable salt or co-crystal has been found for of Compound (I), which itself readily crystalizes when forming tablets. Finally, existing tablet forms of Compound (I) allowed a relatively small proportion of API to be loaded into the tablet form, necessitating repeated dosing of many tablets, potentially jeopardizing patient compliance.
(§1) Bezuclastinib has a high melting point and is insoluble in aqueous and most organic solvents. No suitable salt or co-crystal was found.

[7] = Pka of Bezuclastinib (Table 1); assay type: physicochemical; settings: Weak Base
Description: as §1

[8] = LogD of Bezuclastinib (Table 1); assay type: physicochemical
Description: as §1

[9] = Solubility in organic solvents; assay type: physicochemical; settings: organic solvent or mixture, thermodynamic from solid, 21° C., read-out: free drug concentration (solubility)
Method: (Table 3). A saturated suspension was prepared in each solvent and the samples were stirred overnight using a magnetic stirrer. The free drug concentration was determined by subjecting the samples to 7 minutes in an ultracentrifuge at 470,000× gravity. A 100 μL aliquot was withdrawn and diluted in 5× in DMSO and Methanol and tested by the HPLC method. Three (3) replicates were performed in each solvent. Bezuclastinib was poorly soluble (free drug concentration <5.0 mg/mL), other than DMSO (free drug concentration <20 mg/mL).

[10] = human, in vivo, po

**Q.** For `Cc1ccc(NC(=O)c2ccc(CN3CCN(C)CC3)cc2)cc1Nc1nccc(-c2cccnc2)n1` [STI571], which “inhibition of cells with c-kit mutations in the catalytic region” value [1] is on record?
**A.** The value was “did not inhibit the cells”.

**Q.** Which half-life [2] does the source give for `Cc1n[nH]c(C(=O)Nc2cnc3[nH]c(-c4ccccc4)cc3c2)c1C` [Bezuclastinib, 3,4-dimethyl-N-(2-phenyl-1H-pyrrolo[2,3-b]pyridin-5-yl)-1H-pyrazole-5-carboxamide] here?
**A.** Its half-life is 2.02 to 2.98 days.

**Q.** And the solubility [3]?
**A.** Its solubility is at most 1.2 µg/mL.

**Q.** What about the “Microcentrifuge Assay @ 5 min (total drug)” value ([4]; 5 min) of the same compound?
**A.** Its value is 2.0 µg/mL.

**Q.** And the “Ultracentrifuge Assay @ 5 min (free drug)” value ([4]; 5 min)?
**A.** Its value is 1.5 µg/mL.

**Q.** What about the “Microcentrifuge Assay @ 60 min (total drug)” value ([4]; 60 min) of the same compound?
**A.** The value was 3.4 µg/mL.

**Q.** And the “Ultracentrifuge Assay @ 60 min (free drug)” value ([4]; 60 min)?
**A.** The value was 1.6 µg/mL.

**Q.** What about the “Microcentrifuge Assay @ 6 hrs (total drug)” value ([4]; 6 hrs) of the same compound?
**A.** Its value is 2.0 µg/mL.

**Q.** And the “Ultracentrifuge Assay @ 6 hrs (free drug)” value ([4]; 6 hrs)?
**A.** The value was 1.7 µg/mL.

**Q.** And the solubility [5]?
**A.** The solubility was under 20 µg/mL.

**Q.** And the solubility ([6]; aqueous conditions, pH 7.0, read-out: solubility in aqueous conditions)?
**A.** Its solubility is 0.32 µg/mL (≈ 0.966 µM).

**Q.** What about the solubility ([6]; aqueous medium, pH = 7.0, read-out: Aqueous solubility) of the same compound?
**A.** Its solubility is 0.31 µg/mL (≈ 0.935 µM).

**Q.** What about the pKa [7] of the same compound?
**A.** The pKa was 2.86.

**Q.** And the logD [8]?
**A.** The logD was 3.46.

**Q.** What about the solubility ([9]; DMSO) of the same compound?
**A.** Its solubility is under 20 mg/mL.

**Q.** And the solubility ([9]; organic solvents of Table 3 other than DMSO)?
**A.** The solubility was under 5 mg/mL.

**Q.** What about the “median time to maximum concentration” value [10] of the same compound?
**A.** Its value is 12 to 16 h.
